According to ChEMBL document CHEMBL5678810:

Legend:
[1] = biological target: NUAK family SNF1-like kinase 1 (Homo sapiens) (UniProt O60285); experiment: Inhibition of T7 bacteriophage fused human ARK5 at 10 uM by KINOMEscan analysis relative to control
[2] = biological target: Tyrosine-protein kinase receptor UFO (Homo sapiens) (UniProt P30530); experiment: Inhibition of T7 bacteriophage fused human AXL at 10 uM by KINOMEscan analysis relative to control
[3] = biological target: Bone morphogenetic protein receptor type-1A (Homo sapiens) (UniProt P36894); experiment: Inhibition of T7 bacteriophage fused human BMPR1A at 10 uM by KINOMEscan analysis relative to control
[4] = biological target: Cytoplasmic tyrosine-protein kinase BMX (Homo sapiens) (UniProt P51813); experiment: Inhibition of T7 bacteriophage fused human BMX at 10 uM by KINOMEscan analysis relative to control
[5] = biological target: Cyclin-dependent kinase 4/cyclin D1 (Homo sapiens) (UniProt P11802+P24385); experiment: Inhibition of T7 bacteriophage fused human CDK4-cyclinD1 at 10 uM by KINOMEscan analysis relative to control; format: protein-complex assay
[6] = system: Epidermal growth factor receptor (Homo sapiens), P00533 [UNDEFINED MUTATION]; experiment: Inhibition of T7 bacteriophage fused human EGFR L747/T751del/Sins mutant at 10 uM by KINOMEscan analysis relative to control
[7] = biological target: Eukaryotic translation initiation factor 2-alpha kinase 1 (Homo sapiens) (UniProt Q9BQI3); experiment: Inhibition of T7 bacteriophage fused human EIF2AK1 at 10 uM by KINOMEscan analysis relative to control
[8] = biological target: Ephrin type-A receptor 6 (Homo sapiens) (UniProt Q9UF33); experiment: Inhibition of T7 bacteriophage fused human EPHA6 at 10 uM by KINOMEscan analysis relative to control
Chain of Ephrin type-A receptor 6 (Homo sapiens) (Q9UF33 whole entry, the tested form may be a part): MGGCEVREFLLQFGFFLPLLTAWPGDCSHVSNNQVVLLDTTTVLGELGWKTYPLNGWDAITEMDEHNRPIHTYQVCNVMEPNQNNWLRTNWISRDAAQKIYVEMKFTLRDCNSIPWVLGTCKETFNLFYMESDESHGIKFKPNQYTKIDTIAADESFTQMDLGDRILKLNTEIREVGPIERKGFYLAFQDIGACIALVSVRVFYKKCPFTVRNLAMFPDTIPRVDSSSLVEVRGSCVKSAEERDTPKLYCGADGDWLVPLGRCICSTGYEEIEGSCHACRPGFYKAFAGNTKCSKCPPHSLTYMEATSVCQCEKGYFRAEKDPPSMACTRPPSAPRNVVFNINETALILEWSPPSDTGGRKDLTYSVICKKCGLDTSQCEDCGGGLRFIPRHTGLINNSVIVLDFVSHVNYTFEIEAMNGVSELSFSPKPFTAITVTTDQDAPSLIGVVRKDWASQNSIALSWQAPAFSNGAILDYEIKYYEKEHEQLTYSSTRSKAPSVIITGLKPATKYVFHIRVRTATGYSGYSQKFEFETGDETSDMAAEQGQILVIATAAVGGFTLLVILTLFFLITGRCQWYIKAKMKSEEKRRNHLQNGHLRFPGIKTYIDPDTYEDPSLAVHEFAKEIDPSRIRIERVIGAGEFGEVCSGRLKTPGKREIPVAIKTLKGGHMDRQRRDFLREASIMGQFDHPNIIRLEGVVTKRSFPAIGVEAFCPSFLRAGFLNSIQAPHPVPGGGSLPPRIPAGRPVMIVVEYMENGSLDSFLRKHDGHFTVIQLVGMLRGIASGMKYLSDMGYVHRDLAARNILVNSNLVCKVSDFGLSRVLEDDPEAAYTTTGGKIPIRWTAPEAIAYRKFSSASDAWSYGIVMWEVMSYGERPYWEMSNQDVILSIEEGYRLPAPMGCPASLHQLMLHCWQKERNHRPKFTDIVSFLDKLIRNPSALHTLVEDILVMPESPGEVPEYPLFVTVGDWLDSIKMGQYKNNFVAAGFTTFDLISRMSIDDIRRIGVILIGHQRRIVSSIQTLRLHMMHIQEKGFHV

[9] = biological target: Ephrin type-B receptor 2 (Homo sapiens) (UniProt P29323); experiment: Inhibition of T7 bacteriophage fused human EPHB2 at 10 uM by KINOMEscan analysis relative to control
Chain of Ephrin type-B receptor 2 (Homo sapiens) (P29323 whole entry, the tested form may be a part): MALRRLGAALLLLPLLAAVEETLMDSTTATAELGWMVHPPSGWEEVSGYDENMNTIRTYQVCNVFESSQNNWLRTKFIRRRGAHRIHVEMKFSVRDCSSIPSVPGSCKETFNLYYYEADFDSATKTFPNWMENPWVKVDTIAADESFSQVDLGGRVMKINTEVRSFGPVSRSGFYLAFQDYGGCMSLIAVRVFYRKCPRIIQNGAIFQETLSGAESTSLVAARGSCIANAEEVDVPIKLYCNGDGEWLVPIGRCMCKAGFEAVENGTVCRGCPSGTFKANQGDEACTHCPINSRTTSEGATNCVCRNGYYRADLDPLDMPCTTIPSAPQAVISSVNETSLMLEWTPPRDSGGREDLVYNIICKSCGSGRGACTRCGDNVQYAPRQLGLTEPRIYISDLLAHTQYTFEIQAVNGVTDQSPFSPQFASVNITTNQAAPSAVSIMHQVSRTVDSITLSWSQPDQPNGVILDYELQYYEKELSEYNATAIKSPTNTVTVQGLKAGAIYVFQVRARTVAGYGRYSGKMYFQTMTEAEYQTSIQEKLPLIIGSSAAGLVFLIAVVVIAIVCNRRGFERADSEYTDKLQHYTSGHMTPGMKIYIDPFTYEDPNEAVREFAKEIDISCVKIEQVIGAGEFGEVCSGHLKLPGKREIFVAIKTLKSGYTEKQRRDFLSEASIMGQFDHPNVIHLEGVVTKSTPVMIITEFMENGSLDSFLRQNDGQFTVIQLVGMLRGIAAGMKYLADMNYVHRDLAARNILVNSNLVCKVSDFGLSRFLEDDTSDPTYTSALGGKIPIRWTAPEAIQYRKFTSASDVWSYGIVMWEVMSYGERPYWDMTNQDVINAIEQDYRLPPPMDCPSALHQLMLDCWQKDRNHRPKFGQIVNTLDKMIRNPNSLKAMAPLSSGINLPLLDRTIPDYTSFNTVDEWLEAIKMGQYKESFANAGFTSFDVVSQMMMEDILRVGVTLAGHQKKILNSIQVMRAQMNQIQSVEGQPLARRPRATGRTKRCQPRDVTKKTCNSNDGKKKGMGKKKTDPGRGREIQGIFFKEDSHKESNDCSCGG

[10] = system: Fibroblast growth factor receptor 3 (Homo sapiens), P22607 [G697C]; experiment: Inhibition of T7 bacteriophage fused human FGFR3 G697C mutant at 10 uM by KINOMEscan analysis relative to control
[11] = system: Receptor-type tyrosine-protein kinase FLT3 (Homo sapiens), P36888 [D835Y]; experiment: Inhibition of T7 bacteriophage fused human FLT3 D835Y mutant at 10 uM by KINOMEscan analysis relative to control
[12] = biological target: Tyrosine-protein kinase HCK (Homo sapiens) (UniProt P08631); experiment: Inhibition of T7 bacteriophage fused human HCK at 10 uM by KINOMEscan analysis relative to control
[13] = biological target: Mitogen-activated protein kinase kinase kinase kinase 1 (Homo sapiens) (UniProt Q92918); experiment: Inhibition of T7 bacteriophage fused human HPK1 at 10 uM by KINOMEscan analysis relative to control
[14] = biological target: Inhibitor of nuclear factor kappa-B kinase subunit alpha (Homo sapiens) (UniProt O15111); experiment: Inhibition of T7 bacteriophage fused human IKK-alpha at 10 uM by KINOMEscan analysis relative to control
[15] = biological target: Interleukin-1 receptor-associated kinase 3 (Homo sapiens) (UniProt Q9Y616); experiment: Inhibition of T7 bacteriophage fused human IRAK3 at 10 uM by KINOMEscan analysis relative to control
[16] = biological target: Tyrosine-protein kinase JAK1 (Homo sapiens) (UniProt P23458); experiment: Inhibition of T7 bacteriophage fused human JAK1 JH1catalytic domain at 10 uM by KINOMEscan analysis relative to control
[17] = biological target: Mitogen-activated protein kinase 9 (Homo sapiens) (UniProt P45984); experiment: Inhibition of T7 bacteriophage fused human JNK2 at 10 uM by KINOMEscan analysis relative to control
Chain of Mitogen-activated protein kinase 9 (Homo sapiens) (P45984 whole entry, looked up, the tested form may be a part): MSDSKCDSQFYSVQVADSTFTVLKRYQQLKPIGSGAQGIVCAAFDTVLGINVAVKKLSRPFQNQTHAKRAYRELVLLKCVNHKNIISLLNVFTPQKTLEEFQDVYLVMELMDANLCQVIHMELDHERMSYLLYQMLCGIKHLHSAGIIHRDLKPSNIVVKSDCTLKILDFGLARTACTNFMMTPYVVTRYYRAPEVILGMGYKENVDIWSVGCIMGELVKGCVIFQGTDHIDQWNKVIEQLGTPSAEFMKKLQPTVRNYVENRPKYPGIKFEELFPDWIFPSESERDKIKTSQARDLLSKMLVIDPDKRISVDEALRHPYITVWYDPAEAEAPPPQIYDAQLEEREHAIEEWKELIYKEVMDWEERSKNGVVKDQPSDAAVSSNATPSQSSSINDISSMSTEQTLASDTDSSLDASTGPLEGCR

[18] = system: Mast/stem cell growth factor receptor Kit (Homo sapiens), P10721 [V559D]; experiment: Inhibition of T7 bacteriophage fused human KIT V559D mutant at 10 uM by KINOMEscan analysis relative to control
Chain of Mast/stem cell growth factor receptor Kit (Homo sapiens), P10721 [V559D] (P10721 whole entry V559D, the tested form may be a part, canonical isoform): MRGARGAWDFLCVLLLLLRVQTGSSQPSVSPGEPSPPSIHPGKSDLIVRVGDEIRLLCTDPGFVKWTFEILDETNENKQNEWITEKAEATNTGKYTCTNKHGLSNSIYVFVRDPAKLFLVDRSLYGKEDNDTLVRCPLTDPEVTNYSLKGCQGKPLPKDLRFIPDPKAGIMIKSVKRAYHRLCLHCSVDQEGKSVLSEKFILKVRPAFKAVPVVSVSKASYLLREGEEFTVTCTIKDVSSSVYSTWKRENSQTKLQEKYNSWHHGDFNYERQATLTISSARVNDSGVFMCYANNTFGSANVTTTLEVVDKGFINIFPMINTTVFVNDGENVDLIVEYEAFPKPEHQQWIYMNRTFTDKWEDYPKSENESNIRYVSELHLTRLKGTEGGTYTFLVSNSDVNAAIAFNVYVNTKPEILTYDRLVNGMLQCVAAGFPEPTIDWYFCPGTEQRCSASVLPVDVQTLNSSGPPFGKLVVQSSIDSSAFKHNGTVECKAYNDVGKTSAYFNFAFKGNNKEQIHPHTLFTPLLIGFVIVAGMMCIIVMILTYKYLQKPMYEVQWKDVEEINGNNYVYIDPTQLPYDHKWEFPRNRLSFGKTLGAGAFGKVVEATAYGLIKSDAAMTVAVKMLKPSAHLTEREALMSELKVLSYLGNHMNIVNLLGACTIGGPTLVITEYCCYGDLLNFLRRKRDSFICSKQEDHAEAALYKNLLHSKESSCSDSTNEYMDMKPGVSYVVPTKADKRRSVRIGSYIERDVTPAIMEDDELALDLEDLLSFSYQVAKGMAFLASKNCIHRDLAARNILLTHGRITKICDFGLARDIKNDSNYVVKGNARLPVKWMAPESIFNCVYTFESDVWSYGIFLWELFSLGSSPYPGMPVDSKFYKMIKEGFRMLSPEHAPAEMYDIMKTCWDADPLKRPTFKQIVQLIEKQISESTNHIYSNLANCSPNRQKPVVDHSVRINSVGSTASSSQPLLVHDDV

[19] = system: Phosphatidylinositol 4,5-bisphosphate 3-kinase catalytic subunit alpha isoform (Homo sapiens), P42336 [E545K]; experiment: Inhibition of T7 bacteriophage fused human PIK3CA E545K mutant at 10 uM by KINOMEscan analysis relative to control
[20] = system: Phosphatidylinositol 4,5-bisphosphate 3-kinase catalytic subunit alpha isoform (Homo sapiens), P42336 [H1047Y]; experiment: Inhibition of T7 bacteriophage fused human PIK3CA H1047Y mutant at 10 uM by KINOMEscan analysis relative to control
[21] = system: Phosphatidylinositol 4,5-bisphosphate 3-kinase catalytic subunit alpha isoform (Homo sapiens), P42336 [Q546K]; experiment: Inhibition of T7 bacteriophage fused human PIK3CA Q546K mutant at 10 uM by KINOMEscan analysis relative to control
[22] = biological target: Serine/threonine-protein kinase D2 (Homo sapiens) (UniProt Q9BZL6); experiment: Inhibition of T7 bacteriophage fused human PRKD2 at 10 uM by KINOMEscan analysis relative to control
[23] = system: Proto-oncogene tyrosine-protein kinase receptor Ret (Homo sapiens), P07949 [M918T]; experiment: Inhibition of T7 bacteriophage fused human RET M918T mutant at 10 uM by KINOMEscan analysis relative to control
[24] = system: Proto-oncogene tyrosine-protein kinase receptor Ret (Homo sapiens), P07949 [V804M]; experiment: Inhibition of T7 bacteriophage fused human RET V804M mutant at 10 uM by KINOMEscan analysis relative to control
[25] = biological target: Ribosomal protein S6 kinase alpha-4 (Homo sapiens) (UniProt O75676); experiment: Inhibition of T7 bacteriophage fused human C-terminal RPS6KA4 Kinase domain-2 at 10 uM by KINOMEscan analysis relative to control
[26] = biological target: Epidermal growth factor receptor (Homo sapiens) (UniProt P00533); experiment: Inhibition of T7 bacteriophage fused human EGFR at 10 uM by KINOMEscan analysis relative to control; values are per cent of control
[27] = biological target: Death-associated protein kinase 2 (Homo sapiens) (UniProt Q9UIK4); experiment: Inhibition of T7 bacteriophage fused human DAPK2 at 10 uM by KINOMEscan analysis relative to control; values are per cent of control
[28] = biological target: Dual specificity tyrosine-phosphorylation-regulated kinase 2 (Homo sapiens) (UniProt Q92630); experiment: Inhibition of T7 bacteriophage fused human DYRK2 at 10 uM by KINOMEscan analysis relative to control; values are per cent of control
[29] = biological target: Mitogen-activated protein kinase kinase kinase kinase 3 (Homo sapiens) (UniProt Q8IVH8); experiment: Inhibition of T7 bacteriophage fused human MAP4K3 at 10 uM by KINOMEscan analysis relative to control; values are per cent of control
[30] = biological target: MAP kinase-activated protein kinase 5 (Homo sapiens) (UniProt Q8IW41); experiment: Inhibition of T7 bacteriophage fused human MAPKAPK5 at 10 uM by KINOMEscan analysis relative to control; values are per cent of control

Chain of NUAK family SNF1-like kinase 1 (Homo sapiens) (O60285 whole entry, the tested form may be a part): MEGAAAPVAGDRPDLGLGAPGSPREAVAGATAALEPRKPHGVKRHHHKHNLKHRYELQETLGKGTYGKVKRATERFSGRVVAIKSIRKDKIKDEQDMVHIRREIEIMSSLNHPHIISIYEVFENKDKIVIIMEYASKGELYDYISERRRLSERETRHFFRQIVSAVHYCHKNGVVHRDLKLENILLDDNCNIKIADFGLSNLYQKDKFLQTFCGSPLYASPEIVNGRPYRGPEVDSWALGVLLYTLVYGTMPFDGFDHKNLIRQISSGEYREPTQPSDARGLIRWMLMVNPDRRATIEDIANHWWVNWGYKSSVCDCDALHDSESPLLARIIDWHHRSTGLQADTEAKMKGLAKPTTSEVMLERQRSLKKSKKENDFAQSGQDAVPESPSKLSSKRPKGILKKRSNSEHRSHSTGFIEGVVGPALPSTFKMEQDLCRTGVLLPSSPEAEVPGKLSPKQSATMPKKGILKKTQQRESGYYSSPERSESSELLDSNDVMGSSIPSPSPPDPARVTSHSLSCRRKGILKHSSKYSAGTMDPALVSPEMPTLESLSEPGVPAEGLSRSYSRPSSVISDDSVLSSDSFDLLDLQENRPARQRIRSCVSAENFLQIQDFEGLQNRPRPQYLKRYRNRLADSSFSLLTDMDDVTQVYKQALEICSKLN
Chain of Tyrosine-protein kinase receptor UFO (Homo sapiens) (P30530 whole entry, the tested form may be a part): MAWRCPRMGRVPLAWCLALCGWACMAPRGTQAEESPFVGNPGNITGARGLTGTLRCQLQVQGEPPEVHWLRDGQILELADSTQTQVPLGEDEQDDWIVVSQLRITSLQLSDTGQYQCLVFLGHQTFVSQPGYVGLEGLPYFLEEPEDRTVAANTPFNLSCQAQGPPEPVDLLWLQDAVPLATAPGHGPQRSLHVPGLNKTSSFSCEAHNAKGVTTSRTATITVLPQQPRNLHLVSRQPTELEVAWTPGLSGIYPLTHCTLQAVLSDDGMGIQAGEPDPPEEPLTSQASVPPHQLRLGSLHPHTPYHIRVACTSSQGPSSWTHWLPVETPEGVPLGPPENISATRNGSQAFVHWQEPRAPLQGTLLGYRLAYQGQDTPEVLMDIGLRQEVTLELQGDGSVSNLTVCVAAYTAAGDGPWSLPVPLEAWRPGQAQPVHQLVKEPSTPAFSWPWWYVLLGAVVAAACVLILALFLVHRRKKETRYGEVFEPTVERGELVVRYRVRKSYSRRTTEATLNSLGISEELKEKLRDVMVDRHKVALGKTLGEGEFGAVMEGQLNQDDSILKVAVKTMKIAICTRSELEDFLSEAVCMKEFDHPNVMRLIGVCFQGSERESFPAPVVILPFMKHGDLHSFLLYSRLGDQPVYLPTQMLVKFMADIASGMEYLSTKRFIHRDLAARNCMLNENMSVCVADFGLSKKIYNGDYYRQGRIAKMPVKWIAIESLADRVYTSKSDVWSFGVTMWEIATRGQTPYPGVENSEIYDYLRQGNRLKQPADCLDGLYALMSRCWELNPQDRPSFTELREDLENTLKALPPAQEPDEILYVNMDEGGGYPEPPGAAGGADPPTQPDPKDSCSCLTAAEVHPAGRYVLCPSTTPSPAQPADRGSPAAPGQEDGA

COc1cc(N2CCC(N3CCN(C)CC3)CC2)ccc1Nc1ncc2c(n1)N(C)c1ccccc1C(=O)N2C
inhibition [1]: 47%
inhibition [2]: 100%
inhibition [3]: 100%
inhibition [4]: 87%
inhibition [5]: 100%
inhibition [6]: 100%
inhibition [7]: 100%
inhibition [8]: 89%
inhibition [9]: 100%
inhibition [10]: 85%
inhibition [11]: 100%
inhibition [12]: 100%
inhibition [13]: 100%
inhibition [14]: 100%
inhibition [15]: 100%
inhibition [16]: 100%
inhibition [17]: 94%
inhibition [18]: 100%
inhibition [19]: 100%
inhibition [20]: 71%
inhibition [21]: 91%
inhibition [22]: 59%
inhibition [23]: 100%
inhibition [24]: 80%
inhibition [25]: 46%
residual activity [26]: 84%
residual activity [27]: 67%
residual activity [28]: 76%
residual activity [29]: 71%
residual activity [30]: 97%
